The source of these data is ChEMBL document CHEMBL1151085, “Design, synthesis and SAR of RGD peptide hybrids as highly efficient inhibitors of platelet aggregation” (Bioorg Med Chem Lett, 1995).

The species named for one assay is Homo sapiens. Kind of assay: In vitro for its inhibitory activity against platelet aggregation induced by ADP. The assay is classed as functional.
The target in assay [1] is Integrin alpha-IIb/beta-3 (Homo sapiens, UniProt P05106+P08514). Description: Displacement of [3H]SKF-107260 from alpha IIb beta3 integrin. It is filed as protein-complex assay.
The nature of assay [2]: Displacement of [3H]SKF-107260 from […] integrin. The arrangement: species or system Homo sapiens.

Sequence of Integrin alpha-IIb/beta-3 (P05106 27-788 limits assumed): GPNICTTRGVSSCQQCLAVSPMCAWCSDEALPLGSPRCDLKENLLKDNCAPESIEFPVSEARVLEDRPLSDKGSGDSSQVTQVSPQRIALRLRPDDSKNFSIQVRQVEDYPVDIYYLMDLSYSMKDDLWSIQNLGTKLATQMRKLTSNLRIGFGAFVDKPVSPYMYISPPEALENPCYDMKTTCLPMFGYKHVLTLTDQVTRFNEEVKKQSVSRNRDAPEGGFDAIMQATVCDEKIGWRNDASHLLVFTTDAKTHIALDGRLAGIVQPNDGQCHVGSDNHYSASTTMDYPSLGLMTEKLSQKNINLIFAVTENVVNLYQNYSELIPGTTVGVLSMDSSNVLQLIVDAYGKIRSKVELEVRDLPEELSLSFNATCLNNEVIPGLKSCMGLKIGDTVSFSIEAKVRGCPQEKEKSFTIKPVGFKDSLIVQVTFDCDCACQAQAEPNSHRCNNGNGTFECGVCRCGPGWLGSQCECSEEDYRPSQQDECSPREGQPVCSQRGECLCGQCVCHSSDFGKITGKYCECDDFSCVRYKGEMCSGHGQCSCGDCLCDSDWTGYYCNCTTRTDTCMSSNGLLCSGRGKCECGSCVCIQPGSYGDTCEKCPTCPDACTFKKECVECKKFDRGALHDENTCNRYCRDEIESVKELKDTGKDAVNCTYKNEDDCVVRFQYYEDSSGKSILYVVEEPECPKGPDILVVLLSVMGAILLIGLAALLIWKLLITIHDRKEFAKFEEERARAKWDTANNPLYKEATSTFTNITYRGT
Sequence of Integrin alpha-IIb/beta-3 (P08514 32-887 limits assumed): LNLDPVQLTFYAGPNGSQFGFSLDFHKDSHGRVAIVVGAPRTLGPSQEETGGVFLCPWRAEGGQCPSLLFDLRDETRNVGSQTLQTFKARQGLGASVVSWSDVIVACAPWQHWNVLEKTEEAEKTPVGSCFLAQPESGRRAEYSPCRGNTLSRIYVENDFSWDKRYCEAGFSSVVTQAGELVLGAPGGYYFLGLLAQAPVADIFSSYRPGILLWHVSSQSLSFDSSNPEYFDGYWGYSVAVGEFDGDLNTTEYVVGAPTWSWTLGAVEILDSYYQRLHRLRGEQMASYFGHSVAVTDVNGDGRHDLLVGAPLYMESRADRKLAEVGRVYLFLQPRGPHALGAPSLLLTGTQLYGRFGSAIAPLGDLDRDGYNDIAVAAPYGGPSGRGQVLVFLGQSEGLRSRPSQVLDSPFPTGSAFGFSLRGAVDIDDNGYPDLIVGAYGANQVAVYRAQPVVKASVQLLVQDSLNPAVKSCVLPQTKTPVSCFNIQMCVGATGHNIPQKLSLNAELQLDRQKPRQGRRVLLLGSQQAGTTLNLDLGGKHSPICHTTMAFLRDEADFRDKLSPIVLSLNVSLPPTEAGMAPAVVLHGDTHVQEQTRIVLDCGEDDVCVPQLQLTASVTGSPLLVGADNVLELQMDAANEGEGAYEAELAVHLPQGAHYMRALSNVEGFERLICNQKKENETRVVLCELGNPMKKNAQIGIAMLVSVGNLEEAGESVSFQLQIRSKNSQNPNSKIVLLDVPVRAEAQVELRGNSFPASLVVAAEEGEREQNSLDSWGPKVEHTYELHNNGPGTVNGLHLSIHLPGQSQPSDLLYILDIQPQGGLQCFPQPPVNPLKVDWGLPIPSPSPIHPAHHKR
Sequence of Integrin alpha-IIb/beta-3 (P08514 891-1039 limits assumed): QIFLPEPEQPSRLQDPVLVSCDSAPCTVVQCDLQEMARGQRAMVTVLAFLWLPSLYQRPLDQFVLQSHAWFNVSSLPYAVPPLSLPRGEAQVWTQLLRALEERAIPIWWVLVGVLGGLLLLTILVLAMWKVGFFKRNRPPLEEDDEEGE

`N=C(N)Nc1ccc(C(=O)NC(Cc2ccc(O)cc2)C(=O)N[C@@H](CC(=O)O)C(=O)N[C@H](Cc2c[nH]c3ccccc23)C(=O)O)cc1` (some centres undefined): the IC50 in the assay listed under Homo sapiens is greater than 50000 nM. Regarding `N=C(N)c1ccc(C(=O)NCCC(=O)N[C@@H](CC(=O)O)C(=O)N[C@H](Cc2ccc3ccccc3c2)C(=O)O)cc1`, 44 nM corresponded to half-maximal inhibition in the assay filed under Homo sapiens (IC50).

Regarding `N=C(N)c1ccc(C(=O)NCCC(=O)N[C@@H](CC(=O)O)C(=O)N[C@H](Cc2c[nH]c3ccccc23)C(=O)O)cc1` (single isomer, unassigned), the Ki in assay [1] stood at 2.3 nM; in assay [2], 35000 nM. The compound also returned an IC50 in the assay filed under Homo sapiens of 26 nM. Consider `N=C(N)Nc1ccc(C(=O)NCCC(=O)N[C@@H](CC(=O)O)C(=O)N[C@H](Cc2c[nH]c3ccccc23)C(=O)O)cc1`, for which the IC50 in the assay listed under Homo sapiens amounted to 70 nM. Take `N=C(N)Nc1ccc(C(=O)N2CCC(C(=O)N[C@@H](CC(=O)O)C(=O)N[C@H](Cc3c[nH]c4ccccc34)C(=O)O)CC2)cc1`: it took 4600 nM to reach half-maximal inhibition in the assay listed under Homo sapiens (IC50). On to `N=C(N)c1ccc(C(=O)NCCC(=O)N[C@@H](CC(=O)O)C(=O)NC(Cc2ccc(F)cc2)C(=O)O)cc1` (single isomer, unassigned), for which, in the assay filed under Homo sapiens, the IC50 turned out to be 47 nM. Take `N=C(N)Nc1ccc(C(=O)NCCC(=O)N[C@@H](CC(=O)O)C(=O)N[C@H](Cc2cccc3ccccc23)C(=O)O)cc1`: in the assay filed under Homo sapiens, it took 770 nM to reach half-maximal inhibition (IC50). For `N=C(N)Nc1ccc(C(=O)NCC(=O)N[C@@H](CC(=O)O)C(=O)N[C@H](Cc2c[nH]c3ccccc23)C(=O)O)cc1`, in the assay listed under Homo sapiens, the IC50 was 600 nM. The compound `N=C(N)NCc1ccc(C(=O)NCCC(=O)N[C@@H](CC(=O)O)C(=O)N[C@H](Cc2c[nH]c3ccccc23)C(=O)O)cc1` came in with an IC50 in the assay listed under Homo sapiens of 710 nM. The compound `N=C(N)c1ccc(C(=O)NCCC(=O)N[C@@H](CC(=O)O)C(=O)N[C@@H](Cc2ccc(O)cc2)C(=O)O)cc1` registered an IC50 in the assay listed under Homo sapiens of 1200 nM. In the assay listed under Homo sapiens, `N=C(N)Nc1ccc(C(=O)NCCC(=O)N[C@@H](CC(=O)O)C(=O)N[C@@H](C(=O)O)c2ccccc2)cc1` came in with an IC50 of 2900 nM. As for `N=C(N)c1ccc(C(=O)NCCCC(=O)N[C@@H](CC(=O)O)C(=O)N[C@H](Cc2c[nH]c3ccccc23)C(=O)O)cc1`, the IC50 in the assay filed under Homo sapiens is greater than 50000 nM.

`N=C(N)Nc1ccc(C(=O)NCCC(=O)N[C@@H](CC(=O)O)C(=O)N[C@H](CC2CCCCC2)C(=O)O)cc1` had an IC50 in the assay filed under Homo sapiens of 88 nM.

Compound `N=C(N)Nc1ccc(C(=O)NCCC(=O)N[C@@H](CC(=O)O)C(=O)N[C@@H](Cc2ccccc2)C(=O)O)cc1` gave an IC50 in the assay listed under Homo sapiens of 6100 nM. Turning to `N=C(N)Nc1ccc(C(=O)NCCC(=O)N[C@@H](CC(=O)O)C(=O)N[C@H](Cc2ccc(O)cc2)C(=O)O)cc1`, half-maximal inhibition in the assay listed under Homo sapiens (IC50) required 190 nM.

In the assay filed under Homo sapiens, `N=C(N)Nc1ccc(C(=O)NCCC(=O)N[C@@H](CC(=O)O)C(=O)N[C@H](Cc2ccc3ccccc3c2)C(=O)O)cc1` gave an IC50 of 320 nM. The same measure, in the same setting: under `N=C(N)Nc1ccc(C(=O)NCCCC(=O)N[C@@H](CC(=O)O)C(=O)N[C@H](Cc2c[nH]c3ccccc23)C(=O)O)cc1` stands greater than 50000 nM; under `N=C(N)Nc1ccc(C(=O)NCCC(=O)N[C@@H](CC(=O)O)C(=O)N[C@H](Cc2ccc(F)cc2)C(=O)O)cc1`, 1700 nM.

As for `N=C(N)Nc1ccc(C(=O)NCCC(=O)N[C@@H](CC(=O)O)C(=O)N[C@H](Cc2ccccc2)C(=O)O)cc1`, the IC50 in the assay listed under Homo sapiens was 390 nM. In the case of `N=C(N)c1ccc(C(=O)NCCC(=O)N[C@@H](CC(=O)O)C(=O)NC(Cc2ccc(O)cc2)C(=O)O)cc1` (single isomer, unassigned), the figures for the Ki in assay [1] and in assay [2] were 2.1 nM and 75000 nM, respectively. Further, the IC50 in the assay listed under Homo sapiens was 20 nM.
